Measurements taken from US20260297042A1, “BIARYLAMIDE DERIVATIVES AND THEIR USE AS PKMYT1 INHIBITORS” (CANCER RESEARCH TECHNOLOGY LIMITED, priority 2023, published 2026).

Key:
[1] = tested on: OVCAR 3 cells; assay: Cancer cell line proliferation assay, ATP-based cell viability (Cell Titre Glow), OVCAR 3 (CCNE1-amplified); conditions: KYSE30 (normal CCNE1) GI50 vs. OVCAR 3 (CCNE1-amplified) GI50
Method in brief: (§1)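 Cells were treated with PKMYT1 inhibitors, then proliferation was assessed with CellTiter-Glo and luminescence read. GI50 values were fitted from the resulting data.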

[2] = molecular target: T1, Cellular PKMYT1 Biomarker CDK1 pT14 (Homo sapiens, UniProt Q99640); assay: Inhibition of cellular PKMYT1 biomarker CDK1 pT14 in OVCAR 3 cells (immunoblot); type: cell-based; conditions: 20 hours incubation
T1 construct: read-out CDK1 phospho-T14 immunoblot
T1 sequence (Q99640 1-499): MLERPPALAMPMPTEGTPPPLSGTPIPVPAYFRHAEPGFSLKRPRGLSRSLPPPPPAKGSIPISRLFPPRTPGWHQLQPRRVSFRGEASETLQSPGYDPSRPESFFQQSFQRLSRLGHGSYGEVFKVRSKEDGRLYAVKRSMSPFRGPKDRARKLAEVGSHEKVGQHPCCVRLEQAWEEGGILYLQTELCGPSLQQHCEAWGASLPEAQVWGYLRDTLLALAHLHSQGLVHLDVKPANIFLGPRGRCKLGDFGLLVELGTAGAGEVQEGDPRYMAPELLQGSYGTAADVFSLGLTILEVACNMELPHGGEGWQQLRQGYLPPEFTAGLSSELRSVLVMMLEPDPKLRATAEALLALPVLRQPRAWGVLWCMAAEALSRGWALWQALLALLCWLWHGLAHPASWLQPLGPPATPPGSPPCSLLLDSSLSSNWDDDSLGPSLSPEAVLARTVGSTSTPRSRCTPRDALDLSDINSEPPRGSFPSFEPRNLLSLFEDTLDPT
Method in brief: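 Confluent OVCAR 3 cells treated with a compound concentration range for 20 h at 37 °C. Lysates analysed by automated capillary immunoblot for CDK1 phospho-T14, with vinculin, fluorescence detection; IC50 by regression.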

[3] = tested on: KYSE-30 cells; assay: Cancer cell line proliferation assay, ATP-based cell viability (Cell Titre Glow), KYSE-30 (normal CCNE1); conditions: Homo sapiens, KYSE-30 cells (normal CCNE1), concentration that achieves 50% cell growth proliferation inhibition, read-out: KYSE30 Gl50
Method in brief: as §1

[4] = molecular target: T2, WEE1 (Homo sapiens, UniProt P30291); assay: Selectivity versus WEE1 assay (ADP-Glo enzymatic assay); type: biochemical; conditions: for IC50: WEE1 15 nM, ADP-Glo, banded values; for PKMYT1 vs. WEE1 selectivity: fold difference in selectivity for PKMYT1 over WEE1, banded
T2 construct: purchased Thermo Fisher PR7373A
T2 sequence (P30291 whole entry): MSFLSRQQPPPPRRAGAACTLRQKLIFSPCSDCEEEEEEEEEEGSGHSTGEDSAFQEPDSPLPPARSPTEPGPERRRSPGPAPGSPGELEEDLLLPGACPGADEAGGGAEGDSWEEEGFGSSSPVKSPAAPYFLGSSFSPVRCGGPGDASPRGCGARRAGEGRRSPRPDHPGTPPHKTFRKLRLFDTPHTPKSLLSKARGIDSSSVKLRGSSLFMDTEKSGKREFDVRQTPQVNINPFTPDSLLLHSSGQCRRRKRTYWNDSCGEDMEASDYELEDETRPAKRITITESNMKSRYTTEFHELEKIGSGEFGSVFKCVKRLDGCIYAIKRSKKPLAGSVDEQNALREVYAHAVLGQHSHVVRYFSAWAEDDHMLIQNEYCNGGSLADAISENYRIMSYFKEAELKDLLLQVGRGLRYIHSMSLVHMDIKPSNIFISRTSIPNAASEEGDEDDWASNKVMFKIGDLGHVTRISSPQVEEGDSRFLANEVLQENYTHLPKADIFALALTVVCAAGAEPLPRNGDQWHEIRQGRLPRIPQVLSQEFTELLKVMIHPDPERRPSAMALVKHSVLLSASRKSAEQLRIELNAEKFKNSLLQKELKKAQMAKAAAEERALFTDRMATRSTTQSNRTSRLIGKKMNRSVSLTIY
Method in brief: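 ADP-Glo luminescence read-out after a 60 min reaction at 26° C, initiated by 30 µM ATP, with 15 nM enzyme in HEPES pH 7.5/MgCl2/EGTA/Brij-35 buffer containing 1% DMSO. Replicate IC50 values had to agree within 3-fold and fits needed r2 >0.9.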

[5] = molecular target: T3, Human PKMYT1 (Homo sapiens, UniProt Q99640); assay: PKMYT1 biochemical ADP-Glo enzymatic assay; conditions: PKMYT1 kinase domain 15 nM; ADP-Glo; banded values
T3 construct: Human PKMYT1 75-362 was cloned as a TEV cleavable 6xHis fusion; 6xHis (TEV cleavable) (cleaved yes); made in house; host or cells: bacterial cells
T3 sequence (Q99640 75-362): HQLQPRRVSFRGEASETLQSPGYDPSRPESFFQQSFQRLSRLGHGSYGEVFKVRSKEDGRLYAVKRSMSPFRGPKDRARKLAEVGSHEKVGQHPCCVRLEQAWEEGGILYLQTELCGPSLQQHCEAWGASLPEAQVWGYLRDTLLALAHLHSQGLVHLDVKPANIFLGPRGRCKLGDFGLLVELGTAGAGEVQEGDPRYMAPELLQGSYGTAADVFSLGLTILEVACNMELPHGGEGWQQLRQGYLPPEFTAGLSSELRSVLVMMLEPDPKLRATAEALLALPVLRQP
Method in brief: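 Luminescent ADP-Glo Max read-out of ADP produced by 15 nM PKMYT1 (residues 75-362, bacterial, His-tag removed) from 500 µM ATP without peptide substrate. Reaction: 50 mM HEPES pH 7.5, 10 mM MgCl2, 1 mM EGTA, 0.01% Brij-35, 60 min, 26 °C. IC50 values fitted from 10-point curves.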

| SMILES | IC50 [2] [µM] | IC50 [4] [µM] | PKMYT1 vs. WEE1 selectivity [4] | IC50 [5] [µM] | Selectivity ratio KYSE30 Gl50 vs. OVCAR3 Gl50 [1] | GI50 [3] [µM] |
| --- | --- | --- | --- | --- | --- | --- |
| CCn1nc(Nc2ncc(C(=O)Nc3c(C)ccc(O)c3C)s2)c2ccccc21 [BAA-458, 2-((1-ethyl-1H-indazol-3-yl)amino)-N-(3-hydroxy-2,6-dimethylphenyl)thiazole-5-carboxamide] | < 0.1 | 1 to 11 | X (100-<1000 fold) | < 0.05 | Y (>20 fold) | 0.5 to 5 |
| Cc1cn(CCF)nc1Nc1ncc(C(=O)Nc2c(C)ccc(O)c2C)s1 [BAA-470, 2-((1-(2-fluoroethyl)-4-methyl-1H-pyrazol-3-yl)amino)-N-(3-hydroxy-2,6-dimethylphenyl)thiazole-5-carboxamide] | < 0.1 | 1 to 11 | X (100-<1000 fold) | < 0.05 | Y (>20 fold) | > 5 |
| Cc1cn(CC(F)F)nc1Nc1ncc(C(=O)Nc2c(C)ccc(O)c2C)s1 [BAA-478, 2-((1-(2,2-difluoroethyl)-4-methyl-1H-pyrazol-3-yl)amino)-N-(3-hydroxy-2,6-dimethylphenyl)thiazole-5-carboxamide] | < 0.1 | 1 to 11 | X (100-<1000 fold) | < 0.05 | Y (>20 fold) | > 5 |
| Cc1cn(CC(=O)N2CCCC2C(F)(F)F)nc1Nc1ncc(C(=O)Nc2c(C)ccc(O)c2C)s1 (stereo not drawn) [BAA-493, N-(3-hydroxy-2,6-dimethylphenyl)-2-((4-methyl-1-(2-oxo-2-(2-(trifluoromethyl)pyrrolidin-1-yl)ethyl)-1H-pyrazol-3-yl)amino)thiazole-5-carboxamide] | < 0.1 | 1 to 11 | X (100-<1000 fold) | < 0.05 | Y (>20 fold) | > 5 |
| Cc1cn(CC(=O)N2CCC(C(F)(F)F)C2)nc1Nc1ncc(C(=O)Nc2c(C)ccc(O)c2C)s1 (stereo not drawn) [BAA-504, N-(3-hydroxy-2,6-dimethylphenyl)-2-((4-methyl-1-(2-oxo-2-(3-(trifluoromethyl)pyrrolidin-1-yl)ethyl)-1H-pyrazol-3-yl)amino)thiazole-5-carboxamide] | 0.1 to 1 | 1 to 11 | X (100-<1000 fold) | < 0.05 | Y (>20 fold) | > 5 |
| Cc1ccc(O)c(C)c1NC(=O)c1cnc(Nc2nn(CC(=O)N3CCCC3)cc2Cl)s1 [BAA-546, 2-((4-chloro-1-(2-oxo-2-(pyrrolidin-1-yl)ethyl)-1H-pyrazol-3-yl)amino)-N-(3-hydroxy-2,6-dimethylphenyl)thiazole-5-carboxamide] | < 0.1 | 1 to 11 | X (100-<1000 fold) | < 0.05 | Y (>20 fold) | > 5 |

More lines, main results first:

| IC50 [2] [µM] | IC50 [4] [µM] | PKMYT1 vs. WEE1 selectivity [4] | IC50 [5] [µM] | SMILES | Selectivity ratio KYSE30 Gl50 vs. OVCAR3 Gl50 [1] | GI50 [3] [µM] |
| --- | --- | --- | --- | --- | --- | --- |
| < 0.1 | > 11 | Y (1000-5000 fold) | < 0.05 | CCOc1ccc(Nc2ncc(C(=O)Nc3c(C)ccc(O)c3C)s2)nc1C [BAA-430, 2-((5-ethoxy-6-methylpyridin-2-yl)amino)-N-(3-hydroxy-2,6-dimethylphenyl)thiazole-5-carboxamide] | Y (>20 fold) | > 5 |
| < 0.1 | 1 to 11 | X (100-<1000 fold) | < 0.05 | Cc1ccc(O)c(C)c1NC(=O)c1cnc(Nc2cccc(N3CCN(CCO)CC3)n2)s1 [BAA-432, N-(3-hydroxy-2,6-dimethylphenyl)-2-((6-(4-(2-hydroxyethyl)piperazin-1-yl)pyridin-2-yl)amino)thiazole-5-carboxamide] | Y (>20 fold) | > 5 |
| < 0.1 | 1 to 11 | W (10-<100 fold) | < 0.05 | Cc1ccc(O)c(C)c1NC(=O)c1cnc(Nc2ncnc3[nH]ccc23)s1 [BAA-441, 2-((7H-pyrrolo[2,3-d]pyrimidin-4-yl)amino)-N-(3-hydroxy-2,6-dimethylphenyl)thiazole-5-carboxamide] | Y (>20 fold) | > 5 |
| < 0.1 | 1 to 11 | X (100-<1000 fold) | < 0.05 | Cc1ccc2c(Nc3ncc(C(=O)Nc4c(C)ccc(O)c4C)s3)nn(C)c2c1 [BAA-451, 2-((1,6-dimethyl-1H-indazol-3-yl)amino)-N-(3-hydroxy-2,6-dimethylphenyl)thiazole-5-carboxamide] | Y (>20 fold) | > 5 |
| < 0.1 | > 11 | X (100-<1000 fold) | 0.05 to 1 | Cc1ccc(O)c(C)c1NC(=O)c1cnc(Nc2nn(C)c3ccc(F)cc23)s1 [BAA-453, 2-((5-fluoro-1-methyl-1H-indazol-3-yl)amino)-N-(3-hydroxy-2,6-dimethylphenyl)thiazole-5-carboxamide] | Y (>20 fold) | > 5 |
| < 0.1 | > 11 | Y (1000-5000 fold) | 0.05 to 1 | CCn1nc(Nc2ncc(C(=O)Nc3c(C)ccc(O)c3C)s2)c2cc(C(F)(F)F)ccc21 [BAA-456, 2-((1-ethyl-5-(trifluoromethyl)-1H-indazol-3-yl)amino)-N-(3-hydroxy-2,6-dimethylphenyl)thiazole-5-carboxamide] | X (3-20 fold) | 0.5 to 5 |
| < 0.1 | > 11 | X (100-<1000 fold) | 0.05 to 1 | CCn1nc(Nc2ncc(C(=O)Nc3c(C)ccc(O)c3C)s2)c2cc(F)ccc21 [BAA-459, 2-((1-ethyl-5-fluoro-1H-indazol-3-yl)amino)-N-(3-hydroxy-2,6-dimethylphenyl)thiazole-5-carboxamide] | Y (>20 fold) | > 5 |
| < 0.1 | 1 to 11 | X (100-<1000 fold) | < 0.05 | Cc1cn(C(C)C(=O)N2CCCC2)nc1Nc1ncc(C(=O)Nc2c(C)ccc(O)c2C)s1 (stereo not drawn) [BAA-488, N-(3-hydroxy-2,6-dimethylphenyl)-2-((4-methyl-1-(1-oxo-1-(pyrrolidin-1-yl)propan-2-yl)-1H-pyrazol-3-yl)amino)thiazole-5-carboxamide] | Y (>20 fold) | > 5 |
| < 0.1 | 1 to 11 | X (100-<1000 fold) | < 0.05 | CCN(CC)C(=O)C(C)n1cc(C)c(Nc2ncc(C(=O)Nc3c(C)ccc(O)c3C)s2)n1 (stereo not drawn) [BAA-510, 2-((1-(1-(diethylamino)-1-oxopropan-2-yl)-4-methyl-1H-pyrazol-3-yl)amino)-N-(3-hydroxy-2,6-dimethylphenyl)thiazole-5-carboxamide] | Y (>20 fold) | > 5 |
| < 0.1 | 1 to 11 | W (10-<100 fold) | < 0.05 | Cc1cn(CC2CCOC2)nc1Nc1ncc(C(=O)Nc2c(C)ccc(O)c2C)s1 (stereo not drawn) [BAA-543] | Y (>20 fold) | > 5 |
